Experimental data published in patent publication US10363239B2, “Method for inhibiting growth of cancer cells” (Pain Therapeutics, Inc., priority 2013, dated 2019).
Read-outs that look alike come from different tables or passages of the source.

Columns and labels:
mu opiate receptor (MOR) = assay: MOR agonist activity using [35S]GTPγS binding assay in striatal membranes; format: biochemical; conditions: for MOR agonist activity ([35S]GTPγS binding), FLNA-Binding Compound as Agonist 1 μM + BFNA: 1 μM compound + 1 μM β-funaltrexamine
Summary of the method: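 Striatal membranes (200 μg) were preincubated 5 min at 30 °C in HEPES pH 7.5 with 100 mM NaCl, 1 mM MgCl2 and 0.5 nM [35S]GTPγS, then 5 min more with 0.1–10 μM compound. Gαo was immunoprecipitated and bound radioactivity counted by scintillation.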

[1] = molecular target: FLNA pentapeptide of SEQ ID NO: 1 (Bn-VAKGL) (Homo sapiens, UniProt P21333); assay: FITC-NLX-based FLNA screening assay (inhibition of FITC-naloxone binding to Bn-VAKGL on streptavidin plates); conditions: 10 nM FITC-NLX
[2] = 0.1 μM compound relative to DAMGO
[3] = 1 μM compound + BFNA relative to DAMGO + BFNA
[4] = 1 μM compound relative to DAMGO
[5] = FLNA-binding compound 0.01 μM, read-out: Percent Binding Inhibition
[6] = FLNA-binding compound 0.1 μM, read-out: Percent Binding Inhibition
[7] = FLNA-binding compound 1 μM, read-out: Percent Binding Inhibition
[8] = Series C-2, 0.1 μM compound, relative to DAMGO
[9] = Series C-2, 0.1 μM compound, [35S]GTPγS binding to Gαo, striatal membranes
[10] = Series C-2, 1 μM compound + 1 μM β-FNA
[11] = Series C-2, 1 μM compound + β-FNA, relative to DAMGO + BFNA
[12] = Series C-2, 1 μM compound, relative to DAMGO
[13] = Series C-2, 1 μM compound, [35S]GTPγS binding to Gαo, striatal membranes
[14] = read-out: Percent Binding Inhibition, FLNA-binding compound 0.01 μM
[15] = read-out: Percent Binding Inhibition, FLNA-binding compound 0.1 μM
[16] = read-out: Percent Binding Inhibition, FLNA-binding compound 1 μM
[17] = Series B, 0.1 μM compound, relative to DAMGO
[18] = Series B, 0.1 μM compound, [35S]GTPγS binding to Gαo, striatal membranes
[19] = Series B, 1 μM compound + 1 μM β-FNA
[20] = Series B, 1 μM compound + β-FNA, relative to DAMGO + BFNA
[21] = Series B, 1 μM compound, relative to DAMGO
[22] = Series B, 1 μM compound, [35S]GTPγS binding to Gαo, striatal membranes

Compound	MOR agonist activity ([35S]GTPγS binding), FLNA-Binding Compound as Agonist 0.1 μM (mu opiate receptor (MOR); 0.1 μM compound) [%]	% DAMGO (0.1 μM) (mu opiate receptor (MOR); [2]) [%]	MOR agonist activity ([35S]GTPγS binding), FLNA-Binding Compound as Agonist 1 μM (mu opiate receptor (MOR); 1 μM compound) [%]	MOR agonist activity ([35S]GTPγS binding), FLNA-Binding Compound as Agonist 1 μM + BFNA (mu opiate receptor (MOR)) [%]	% DAMGO + BFNA (mu opiate receptor (MOR); [3]) [%]	% DAMGO (1 μM) (mu opiate receptor (MOR); [4]) [%]	inhibition at 0.01 µM [1, 5] [%]	inhibition at 0.1 µM [1, 6] [%]	inhibition at 1 µM [1, 7] [%]	% DAMGO (0.1 μM) (mu opiate receptor (MOR); [8]) [%]	MOR agonist activity, percent [35S]GTPγS binding at the stated compound concentration (mu opiate receptor (MOR); [9]) [%]	MOR agonist activity, percent [35S]GTPγS binding at the stated compound concentration (mu opiate receptor (MOR); [10]) [%]	% DAMGO + BFNA (mu opiate receptor (MOR); [11]) [%]	% DAMGO (1 μM) (mu opiate receptor (MOR); [12]) [%]	MOR agonist activity, percent [35S]GTPγS binding at the stated compound concentration (mu opiate receptor (MOR); [13]) [%]	inhibition at 0.01 µM [1, 14] [%]	inhibition at 0.1 µM [1, 15] [%]	inhibition at 1 µM [1, 16] [%]	other results
CC1CCC(C(C)C)C(OCC(O)CN2CCCC2=O)C1 (stereo not drawn) [Compound A0035]	120.6	61.5	158.8	88.6	119.9	57.5	40.3	45.5	54.9	–	–	–	–	–	–	–	–	–	–
CC(=O)c1ccc(S(=O)(=O)N2CCOC23CCN(CC(=O)O)CC3)cc1 [Compound C0100M]	–	–	–	–	–	–	52.2	58.2	64.5	103.6	173.6	195.6	411.8	110.6	245.9	–	–	–	–
CC(=O)c1ccc(S(=O)(=O)N2C(Cc3c[nH]cn3)C(=O)NC23CCNCC3)cc1 (stereo not drawn) [Compound C0119M]	–	–	–	–	–	–	–	–	–	71.9	105.7	35.1	89.3	83.0	167.8	41.6	55.5	60	–
COc1ccc(S(=O)(=O)N2CCSC23CCNCC3)cc1 [S-C0027]	–	–	–	–	–	–	39.1	46.5	53.6	74.2	156.2	56.2	98.1	84.4	286.8	–	–	–	–
COCOc1ccc(CCC(=O)CC2c3c(cc4c(c3OC)OCO4)CC[N+]2(C)C)cc1 (stereo not drawn) [Compound B0040]	–	–	–	–	–	–	–	–	–	–	–	–	–	–	–	40	53.1	57.1	% DAMGO (0.1 μM) (mu opiate receptor (MOR); [17]): 93.2%; MOR agonist activity, percent [35S]GTPγS binding at the stated compound concentration (mu opiate receptor (MOR); [18]): 146.0%; MOR agonist activity, percent [35S]GTPγS binding at the stated compound concentration (mu opiate receptor (MOR); [19]): 55.3%; % DAMGO + BFNA (mu opiate receptor (MOR); [20]): 169.6%; % DAMGO (1 μM) (mu opiate receptor (MOR); [21]): 105.1%; MOR agonist activity, percent [35S]GTPγS binding at the stated compound concentration (mu opiate receptor (MOR); [22]): 243.3%
CC1CCC(C(C)C)C(OCC(O)CN2CCCCC2=O)C1 (stereo not drawn) [Compound A0036]	144.1	73.4	167.5	63.2	85.5	60.7	45.6	50.1	54.4	–	–	–	–	–	–	–	–	–	–
CC1CCC(C(C)C)C(OCC(O)CN2CCN(CCCN3CCOCC3)CC2)C1 (stereo not drawn) [Compound A0026]	140.7	79.7	179.8	120.8	459.3	70.7	36.4	42.4	49.2	–	–	–	–	–	–	–	–	–	–
COc1ccc(CC(=O)CC2c3c(cc4c(c3OC)OCO4)CC[N+]2(C)C)c(OC)c1 (stereo not drawn) [Compound B0029]	–	–	–	–	–	–	–	–	–	–	–	–	–	–	–	33.4	42.9	50.2	% DAMGO (0.1 μM) (mu opiate receptor (MOR); [17]): 89.4%; MOR agonist activity, percent [35S]GTPγS binding at the stated compound concentration (mu opiate receptor (MOR); [18]): 171.9%; MOR agonist activity, percent [35S]GTPγS binding at the stated compound concentration (mu opiate receptor (MOR); [19]): 17.6%; % DAMGO + BFNA (mu opiate receptor (MOR); [20]): 40.1%; % DAMGO (1 μM) (mu opiate receptor (MOR); [21]): 77.0%; MOR agonist activity, percent [35S]GTPγS binding at the stated compound concentration (mu opiate receptor (MOR); [22]): 210.3%
